pEC50: −log10 of the molar value.
Key:
human GPR40 [1] = biological target: T1, human GPR40 (Homo sapiens, UniProt O14842); assay: GPR40 IP-One HTRF assay in HEK293/GPR40 inducible cell lines; assay type: cell-based; parameters: expressed in transfected cells; details: HEK293 cells, tetracycline-inducible human GPR40, IP-One HTRF; read-out: hGPR40 IP1 EC50
Method: GPR40 IP-One HTRF Assays in HEK293/GPR40 Inducible Cell Lines
Human, mouse and rat GPR40-mediated intracellular IP-One HTRF assays were established using human embryonic kidney HEK293 cells stably transfected with a tetracycline-inducible human, mouse or rat GPR40 receptor. Cells were routinely cultured in growth medium containing DMEM (Gibco Cat. #:12430-047), 10% qualified FBS (Sigma, Cat. #: F2442), 200 μg/mL hygromycin (Invitrogen, Cat. #: 16087-010) and 1.5 μg/mL blasticidin (Invitrogen, Cat. # R210-01). About 12-15 million cells were passed into a T175 tissue culture flask (BD Falcon 353112) with growth medium and incubated for 16-18 hours (overnight) at 370 C with 5% CO2. The next day, assay medium was exchanged with growth medium containing 1000 ng/mL of tetracycline (Fluka Analytical, Cat. #87128) to induce GPR40 expression for 18-24 hours at […] incubator with 5% CO2. After induction, the cells were washed with PBS (Gibco, Cat. #14190-036) and detached with Cell Stripper (Cellgro, Cat. #25-056-CL). 10-20 mL growth medium were added to the flask and cells were collected in 50 mL tubes (Falcon, Cat.#:352098) and spun at 1000 RPM for 5 minutes. Culture medium was aspirated and the cells were resuspended in 10 mL of 1×IP-One Stimulation Buffer from the Cisbio IP-One kit (Cisbio, Cat. #62IPAPEJ). The cells were diluted to 1.4×10^6 cells/mL in Stimulation Buffer.
Test compounds were 3-fold, 11-point serially diluted in DMSO in a REMP assay plate (Matrix Cat. #: 4307) by BioCel (Agilent). The compounds were transferred into an Echo plate (LABCYTE, Cat. #: LP-0200) and 20 nL of diluted compounds were transferred to an assay plate (proxi-plate from Perkin Elmer, Cat. #6008289) by Echo acoustic nano dispenser (LABCYTE, model ECHO550). 14 μL of the diluted cells were then added to the assay plate by Thermo (SN 836 330) Combi Drop and incubated at room temperature for 45 minutes. Then 3 μL of IP1 coupled to dye D2 from the Cisbio IP-One kit were added to the assay plate followed by 3 μL of Lumi4TM-Tb cryptate K from the kit. The plate was further incubated at room for 1 hour before reading on the Envision (Perkin Elmer Model2101) with an HTRF protocol. Activation data for the test compound over a range of concentrations was plotted as percentage activation of the test compound (100%=maximum response). After correcting for background [(sample read-mean of low control)/(mean of high control−mean of low control)] (low control is DMSO without any compound), EC50 values were determined. The EC50 is defined as the concentration of test compound which produces 50% of the maximal response and was quantified using the 4 parameter logistic equation to fit the data.

human GPR40 [2] = biological target: T1, human GPR40; assay: FDSS-based intracellular calcium assay (Human GPR40 in vitro assay); assay type: cell-based; parameters: 3xFLAG; expressed in transfected cells; details: intracellular Ca2+ response, cells expressing GPR40; read-out: hGPR40 EC50
Method: FDSS-based Intracellular Calcium Assay
Compounds are dissolved in DMSO and diluted to desired concentrations with assay buffer and added to the cells as 3× solution (20 μL per well). Run fluorescence/luminescence reader FDSS (Hamamatsu) to read intracellular Ca^2+ response.

T1 sequence (O14842 whole entry): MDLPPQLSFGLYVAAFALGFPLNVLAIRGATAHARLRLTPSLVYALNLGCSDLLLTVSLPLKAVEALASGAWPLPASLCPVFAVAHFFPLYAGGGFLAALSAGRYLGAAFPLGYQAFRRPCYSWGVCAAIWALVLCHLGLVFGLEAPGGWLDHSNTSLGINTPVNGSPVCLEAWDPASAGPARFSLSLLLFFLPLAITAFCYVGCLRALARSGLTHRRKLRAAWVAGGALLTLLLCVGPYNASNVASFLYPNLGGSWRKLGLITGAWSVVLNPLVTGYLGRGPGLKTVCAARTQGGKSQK

`C[C@@H]1C(C(F)(F)F)=NN(c2ccc(OC3CCN(c4cc(O)ccc4F)CC3)cc2)[C@H]1CC(=O)O` [Example 102, 2-((4S,5S)-1-(4-((1-(2-fluoro-5-hydroxyphenyl)piperidin-4-yl)oxy)phenyl)-4-methyl-3-(trifluoromethyl)-4,5-dihydro-1H-pyrazol-5-yl)acetic acid] showed a pEC50 (human GPR40 [1]) of 6.88.

`CCOc1ccc(F)c(N2CCC(Oc3ccc(N4N=C(C(F)(F)F)[C@@H](C)[C@@H]4CC(=O)O)cc3)C(Cc3ccccc3)C2)c1` (single isomer, unassigned) [Example 28 (Isomer 2)] gave a pEC50 (human GPR40 [1]) of 6.64 and a pEC50 (human GPR40 [2]) of 5.88.

Work on `COc1cc(N2CCC(Oc3ccc(N4N=C(C(F)(F)F)[C@@H](C)[C@@H]4CC(=O)O)cn3)C(C)C2)c(Cl)cn1` (single isomer, unassigned) [Example 103 Isomer 2] yielded a pEC50 (human GPR40 [1]) of 7.37 and a pEC50 (human GPR40 [2]) of 7.02.

Compound `COc1cc(N2CC[C@@H](Oc3ccc(N4N=C(C(F)(F)F)[C@@H](C)[C@@H]4CC(=O)O)cc3)[C@H](CC#N)C2)c(Cl)cn1` [Example B2, 2-((4S,5S)-1-(4-(((3R,4R)-1-(5-chloro-2-methoxypyridin-4-yl)-3-(cyanomethyl)piperidin-4-yl)oxy)phenyl)-4-methyl-3-(trifluoromethyl)-4,5-dihydro-1H-pyrazol-5-yl)acetic acid] has a pEC50 (human GPR40 [1]) of 6.44 and a pEC50 (human GPR40 [2]) of 6.23.

`CCOc1ccc(F)c(N2CC[C@@H](Oc3ccc(N4N=C(c5ccc(S(C)(=O)=O)cc5)[C@@H](C)[C@@H]4CC(=O)O)cc3)[C@H](C)C2)c1` [Example 98, 2-((4S,5S)-1-(4-(((3R,4R)-1-(5-ethoxy-2-fluorophenyl)-3-methylpiperidin-4-yl)oxy)phenyl)-4-methyl-3-(4-(methylsulfonyl)phenyl)-4,5-dihydro-1H-pyrazol-5-yl)acetic acid] was tested, and the pEC50 (human GPR40 [1]) was 7.60 and the pEC50 (human GPR40 [2]) was 7.08.

With `COc1cccc(N2CCC(Cc3ccc(N4N=C(c5ccc(F)cc5)[C@@H](C)[C@@H]4CC(=O)O)cc3)CC2)c1` [Example 101, 2-((4S,5S)-3-(4-fluorophenyl)-1-(4-((1-(3-methoxyphenyl)piperidin-4-yl)methyl)phenyl)-4-methyl-4,5-dihydro-1H-pyrazol-5-yl)acetic acid] the pEC50 (human GPR40 [1]) was 7.40 and the pEC50 (human GPR40 [2]) was 6.55.

`CCOc1ccc(F)c(N2CCC(Oc3ccc(N4N=C(C(F)(F)F)[C@@H](C)[C@@H]4CC(=O)O)cc3)C(OC)C2)c1` (single isomer, unassigned) [Example 31 (Isomer 1)] was tested, and the pEC50 (human GPR40 [1]) was 7.89 and the pEC50 (human GPR40 [2]) was 6.33.

`CCOc1ccc(F)c(N2CCC(Cc3ccc(N4N=C(C(F)(F)F)[C@@H](C)[C@@H]4CC(=O)O)cc3)C(C)C2)c1` (single isomer, unassigned) [Example 3 (Isomer 2)] showed a pEC50 (human GPR40 [2]) of 6.33.

`C[C@@H]1C(C(F)(F)F)=NN(c2ccc(OC3CCN(c4cccc5c4OCCO5)CC3)cc2)[C@H]1CC(=O)O` [Example B19, 2-((4S,5S)-1-(4-((1-(2,3-Dihydrobenzo[b][1,4]dioxin-5-yl)piperidin-4-yl)oxy)phenyl)-4-methyl-3-(trifluoromethyl)-4,5-dihydro-1H-pyrazol-5-yl)acetic acid] showed a pEC50 (human GPR40 [2]) of 5.21.

Work on `COCC1CN(c2cc(OC)ncc2Cl)CCC1Oc1ccc(N2N=C(C(F)(F)F)[C@@H](C)[C@@H]2CC(=O)O)cc1` (single isomer, unassigned) [Example B3, Isomer 3] yielded a pEC50 (human GPR40 [2]) of 5.70.

— patent US9604964B2, “Dihydropyrazole GPR40 modulators” (BRISTOL-MYERS SQUIBB COMPANY, priority 2012, dated 2017)
